Columns and labels:
ATase2 = target: T1, ATase2 (Homo sapiens, UniProt Q9UHE5); assay: AcetylCoA:lysine acetyltransferase assay (fluorescent, affinity purified ATase2-myc); type: biochemical
T1 construct: myc (C); made in house
T1 sequence (Q9UHE5 1-227): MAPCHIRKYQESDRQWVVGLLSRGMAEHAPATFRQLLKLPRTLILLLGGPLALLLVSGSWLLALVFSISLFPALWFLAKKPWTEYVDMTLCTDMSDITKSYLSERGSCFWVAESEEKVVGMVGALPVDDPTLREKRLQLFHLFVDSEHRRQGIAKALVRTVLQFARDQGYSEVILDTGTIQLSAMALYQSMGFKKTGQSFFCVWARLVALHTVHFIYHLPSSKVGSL
Experimental: The acetyl:CoA lysine acetyltransferase activity of ATase1 and ATase2 was assayed as described before (Ko and Puglielli, 2009). Briefly, we adapted a commercially available fluorescent kit (cat. no. 10006515, Cayman Chemicals) as follows: as source of the enzymatic activity, we used affinity purified ATase1-myc and ATase2-myc at the final concentration of 300 ng/μl; as donor of the acetyl group, we used acetyl-CoA at the final concentration of 12.5 μM. […] The acetyltransferase assay was performed as recommended by the manufacturer.
For kinetic analysis of ATase1 and ATase2 inhibition, the assays were performed in the presence of the indicated concentrations of compound 9, 19 and 9.I. The concentration of acetyl-CoA was varied from […]. Values were plotted as a Lineweaver-Burk plot using Graphpad Prism software.
We previously described a fluorescent assay that is able to assess the acetylCoA:lysine acetyltransferase activity of ATase1 and ATase2 in vitro (Ko and Puglielli, 2009). The assay employs affinity purified ATase1 or ATase2 (as enzymes), acetyl-CoA (as donor of the acetyl group) and a recombinant peptide corresponding to the N-terminal tail of the histone protein H3 (as acceptor of the acetyl group). The H3 peptide was preferred to affinity purified BACE1 because it is acetylated in a conformation independent manner ((Ko and Puglielli, 2009) and data not shown) and, therefore, more suitable for large screening approaches. To identify possible ATase1 and ATase2 inhibitors we used the assay to screen a single library of 14,400 small molecules/compounds. The screen identified 186 small molecules/compounds able to inhibit ATase1, ATase2 or both in vitro. […] Each compound was then screened for cytotoxic properties by using multi-plex cytotoxicity assays on a variety of cell lines, including human neuroblastoma and human neuroglioma. […] The above 30 compounds were individually screened on human neuroglioma (H4) cells for their ability to reduce the levels of BACE1 and the generation of Aβ. Two compounds, 9 and 19, produced significant changes and were object of further study.

BACE1 = assay: Western blot assessment of BACE1 levels in H4 cell lysates; type: cell-based, human; settings: H4 cells, 48 hours
Experimental: (§1) Western blotting was performed on a 4-12% Bis-Tris SDS-PAGE system (NuPAGE; Invitrogen, Carlsbad, Calif., USA) as described previously (Costantini et al., 2006; Jonas et al., 2008; Jonas et al., 2010; Ko and Puglielli, 2007; Ko and Puglielli, 2009; Pehar et al., 2010). The following antibodies were used in this study: anti-acetylated lysine (monoclonal; cat. no. ab409; Abcam, Cambridge, Mass., USA); anti-BACE1 (polyclonal; cat. no. ab2077; Abcam); anti-Myc (monoclonal; cat. no. sc-40; santa cruz, Santa Cruz, Calif., USA); anti-ATases/NAT8 (polyclonal; cat. no. AP4957c; Abgent, San Diego, Calif., USA); anti-actin (monoclonal; cat. no. A1978; Sigma, St Louis, Mo., USA); anti-C99 (monoclonal; cat. no. M066-3; MBL, Woburn, Mass., USA); anti-acetylated H3 (polyclonal; cat. no. 06-599, Millipore, Billerica, Mass.); anti-acetylated H4 (polyclonal; cat. no. 06-866, Millipore, Billerica, Mass.); anti-αPCNA (polyclonal; cat. no. AP2835b, Abgent, San Diego, Calif., USA).
Samples were imaged with classical chemiluminescence and with the LiCor Odyssey Infrared Imaging System (LI-COR Biosciences, Lincoln, Nebr., USA). For chemiluminescent detection, HRP-conjugated anti-mouse or anti-rabbit secondary antibodies were used at 1:6000 dilution in 3% BSA/TBST (GE Healthcare). Detection was performed with either Lumiglo (KPL) or ECL Plus (GE Healthcare). For infrared imaging, goat anti-rabbit Alexa Fluor 680-conjugated secondary antibodies were used.
To assess their biological effects, we treated human neuroglioma (H4) cells with 10 μM of both compounds. […] This might reflect different kinetics of inhibition as well as different IC50s (see FIG. 2). Alternatively, it might also be explained by different cell-permeability properties. In fact, the cLog P for compound 9 and 19 is 5.03 and 3.19, respectively. The cLog P (or partition coefficient) is an indication of partition properties of a compound between hydrophobic and hydrophilic compartments. Higher values indicate preferential distribution in hydrophobic environments and, as such, increased permeability across biological membranes.

[1] = tested on: cytosolic and nuclear proteins, histone proteins H3 and H4; assay: Lysine acetylation profile of cytosolic and nuclear proteins in H4 cells; type: cell-based, human; settings: 48 hours
Experimental: FIG. 8. […] (A and B) H4 cells were treated with either compound 9 or 19 for 48 hours prior to Western blot assessment of the acetylation profile of cytosolic (A) and nuclear (B) proteins. (C) The nuclear fraction used in (B) was also used to assess the lysine acetylation profile of the histone proteins H3 and H4.
as §1
Cytosolic and nuclear extracts were prepared as described before (Ko and Puglielli, 2007). For cytosolic extracts, cells were homogenized in homogenization buffer containing 25 mM Tris-HCl, pH 7.4, 0.5 mM EDTA, 0.5 mM EGTA, and a protease inhibitor mixture. The homogenates were centrifuged at 14,000×g for 15 min, and supernatants were collected as cytosolic proteins.
For nuclear extracts cells were scraped into ice-cold phosphate-buffered saline and collected by centrifugation. The cell pellets were suspended in 3 volumes of lysis buffer (20 mM Hepes, pH 7.9, 10 mM KCl, 1 mM EDTA, pH 8.0, 0.2% Nonidet P-40, 10% glycerol, and a protease inhibitor mixture) followed by incubation on ice for 10 min. Cell suspensions were gently pipetted up and down; the lysates were then centrifuged at 14,000×g for 5 min at 4° C. to obtain nuclear pellets. Nuclear pellets were washed twice with cell lysis buffer (lacking Nonidet P-40 and protease inhibitor mixture) and then resuspended in 2 volumes of nuclear extract buffer (20 mM Hepes, pH 7.9, 10 mM KCl, 1 mM EDTA, pH 8.0, 420 mM NaCl, 20% glycerol, and a protease inhibitor mixture). The nuclei were extracted by incubation at 4° C. for 30 min with gentle agitation followed by centrifugation at 14,000×g at 4° C. for 5 min; the resultant supernatant fraction was used as a nuclear extract.

IC50 (ATase2): ~790 nM
kinetics of inhibition for acetyl-CoA, ATase2 (ATase2; Lineweaver-Burk plot, acetyl-CoA varied): non-competitive inhibition
Structure (SMILES): O=c1c(Cl)c2oc3ccccc3nc-2c2ccccc12 [Compound 9]
levels of BACE1 (BACE1; 10 μM): significant reduction
levels of BACE1 with increasing concentrations (BACE1; increasing concentrations): dose-dependent decrease
acetylation profile of cytosolic and nuclear proteins [1]: Neither compound 9 nor compound 19 produced significant changes
acetylation profile of the histone protein H3 and H4 ([1]; nuclear fraction): slight reduction
